Reference: PubChem BioAssay AID256 (DTP/NCI, 2004)
Toxic doses and inconclusive results are not listed.

System: CD2F1 mice, L1210 leukemia ip, survival T/C
Experiment: NCI In Vivo Anticancer Drug Screen. Data for tumor model L1210 Leukemia (intraperitoneal) in CD2F1 (CDF1) mice
Conditions: higher = longer survival
Outline: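 Each value reflects a quotient of treated over vehicle control outcomes in mice with a transplanted tumor.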

[1] = endpoint: mean survival time, dose: 100.0 mg/kg/injection, schedule: Q04DX002 (ip), vehicle: saline with Tween-80
[2] = endpoint: mean survival time, dose: 200.0 mg/kg/injection, schedule: Q04DX002 (ip), vehicle: saline with Tween-80
[3] = endpoint: mean survival time, dose: 50.0 mg/kg/injection, schedule: Q04DX002 (ip), vehicle: saline with Tween-80
[4] = endpoint: mean survival time, dose: 5.0 mg/kg/injection, schedule: Q01DX009 (ip), vehicle: saline with Tween-80
[5] = endpoint: mean survival time, dose: 10.0 mg/kg/injection, schedule: Q01DX009 (ip), vehicle: saline with Tween-80
[6] = endpoint: mean survival time, dose: 100.0 mg/kg/injection, schedule: Q04DX003 (ip), vehicle: saline with Tween-80
[7] = endpoint: mean survival time, dose: 200.0 mg/kg/injection, schedule: Q04DX003 (ip), vehicle: saline with Tween-80
[8] = endpoint: mean survival time, dose: 400.0 mg/kg/injection, schedule: Q04DX003 (ip), vehicle: saline with Tween-80

Cc1ccc(O)c(C)n1
T/C (endpoint: mean survival time, dose: 100.0 mg/kg/injection, schedule: Q04DX003 (ip), vehicle: saline): 104 % of control
T/C (endpoint: mean survival time, dose: 200.0 mg/kg/injection, schedule: Q04DX003 (ip), vehicle: saline): 98 % of control
T/C (endpoint: mean survival time, dose: 400.0 mg/kg/injection, schedule: Q04DX003 (ip), vehicle: saline): 97 % of control

CCOc1ccccc1/C=C1\N=C(c2ccc(Cl)cc2)OC1=O
T/C [1]: 94 % of control
T/C [2]: 98 % of control
T/C (endpoint: mean survival time, dose: 400.0 mg/kg/injection, schedule: Q04DX002 (ip), vehicle: saline with Tween-80): 94 % of control

NC(=O)C1CC=CCC1 (stereo unspecified)
T/C (endpoint: mean survival time, dose: 25.0 mg/kg/injection, schedule: Q04DX002 (ip), vehicle: saline with Tween-80): 110 % of control
T/C [3]: 98 % of control
T/C [1]: 94 % of control
T/C [2]: 105 % of control

CN=C(N)CS
T/C (endpoint: mean survival time, dose: 25.0 mg/kg/injection, schedule: Q04DX002 (ip), vehicle: saline): 101 % of control
T/C (endpoint: mean survival time, dose: 50.0 mg/kg/injection, schedule: Q04DX002 (ip), vehicle: saline): 101 % of control
T/C (endpoint: mean survival time, dose: 100.0 mg/kg/injection, schedule: Q04DX002 (ip), vehicle: saline): 101 % of control

CCOC(=O)C1(C(=O)OCC)C(C)CC2Nc3cc4c(cc3C(=O)N21)OCO4 (stereo unspecified)
T/C (endpoint: mean survival time, dose: 100.0 mg/kg/injection, schedule: Q01DX001 (ip), vehicle: Klucel (hydroxypropylcellulose) (HPC)): 92 % of control
T/C (endpoint: mean survival time, dose: 200.0 mg/kg/injection, schedule: Q01DX001 (ip), vehicle: Klucel (hydroxypropylcellulose) (HPC)): 96 % of control
T/C (endpoint: mean survival time, dose: 400.0 mg/kg/injection, schedule: Q01DX001 (ip), vehicle: Klucel (hydroxypropylcellulose) (HPC)): 96 % of control

O=C1N[C@@H]2C(=C[C@H](O)[C@@H](O)[C@H]2O)c2cc3c(c(O)c21)OCO3
T/C (endpoint: median survival time, dose: 0.62 mg/kg/injection, schedule: Q01DX009 (ip), vehicle: saline with Tween-80): 110 % of control
T/C (endpoint: median survival time, dose: 1.25 mg/kg/injection, schedule: Q01DX009 (ip), vehicle: saline with Tween-80): 108 % of control
T/C (endpoint: median survival time, dose: 2.5 mg/kg/injection, schedule: Q01DX009 (ip), vehicle: saline with Tween-80): 113 % of control
T/C (endpoint: median survival time, dose: 5.0 mg/kg/injection, schedule: Q01DX009 (ip), vehicle: saline with Tween-80): 115 % of control

COc1ccccc1C=NC(C)(C)CO
T/C (endpoint: mean survival time, dose: 75.0 mg/kg/injection, schedule: Q01DX001 (ip), vehicle: other): 102 % of control
T/C (endpoint: mean survival time, dose: 150.0 mg/kg/injection, schedule: Q01DX001 (ip), vehicle: other): 97 % of control
T/C (endpoint: mean survival time, dose: 300.0 mg/kg/injection, schedule: Q01DX001 (ip), vehicle: other): 97 % of control

COC(=O)/N=C(/NC(=O)OC)SC
T/C (endpoint: mean survival time, dose: 100.0 mg/kg/injection, schedule: Q01DX001 (ip), vehicle: saline with Tween-80): 101 % of control
T/C (endpoint: mean survival time, dose: 200.0 mg/kg/injection, schedule: Q01DX001 (ip), vehicle: saline with Tween-80): 103 % of control
T/C (endpoint: mean survival time, dose: 400.0 mg/kg/injection, schedule: Q01DX001 (ip), vehicle: saline with Tween-80): 98 % of control

O=C(CC(=O)CC(O)(C(F)(F)F)C(F)(F)F)CC(O)(C(F)(F)F)C(F)(F)F
T/C (endpoint: mean survival time, dose: 5.0 mg/kg/injection, schedule: Q04DX003 (ip), vehicle: saline): 100 % of control
T/C (endpoint: mean survival time, dose: 10.0 mg/kg/injection, schedule: Q04DX003 (ip), vehicle: saline): 96 % of control

OCC1C2C=CC(c3ccccc32)C1CO (stereo unspecified)
T/C [3]: 106 % of control
T/C [1]: 88 % of control
T/C [2]: 95 % of control

CCOC(=O)CC(=O)C(F)(F)F.[Cu+2]
T/C (endpoint: mean survival time, dose: 2.5 mg/kg/injection, schedule: Q01DX009 (ip), vehicle: saline with Tween-80): 98 % of control
T/C [4]: 98 % of control
T/C [5]: 95 % of control

CN1CCN(C(=O)Nc2ccc(N=Nc3ccccc3)cc2)CC1
T/C (endpoint: mean survival time, dose: 25.0 mg/kg/injection, schedule: Q04DX003 (ip), vehicle: saline with Tween-80): 95 % of control
T/C (endpoint: mean survival time, dose: 50.0 mg/kg/injection, schedule: Q04DX003 (ip), vehicle: saline with Tween-80): 95 % of control
T/C [6]: 88 % of control

CCCCCCCCC(=O)c1ccc(N=Nc2ccc(OCC)cc2)cc1
T/C [6]: 94 % of control
T/C [7]: 91 % of control
T/C [8]: 89 % of control

CC1(C)CCC(C)(C)c2c1ccc(O)c2Sc1c(O)ccc2c1C(C)(C)CCC2(C)C
T/C (endpoint: mean survival time, dose: 100.0 mg/kg/injection, schedule: Q01DX009 (ip), vehicle: saline with Tween-80): 97 % of control
T/C [6]: 95 % of control
T/C (endpoint: mean survival time, dose: 200.0 mg/kg/injection, schedule: Q01DX009 (ip), vehicle: saline with Tween-80): 89 % of control
T/C [7]: 97 % of control
T/C (endpoint: mean survival time, dose: 400.0 mg/kg/injection, schedule: Q01DX009 (ip), vehicle: saline with Tween-80): 95 % of control
T/C [8]: 91 % of control

CC1OC(O[C@@H]2C=C3CC[C@@H]4[C@H](CC[C@]5(C)[C@@H](c6ccc(=O)oc6)CC[C@]45O)[C@@]3(C)CC2)C(O)C(O)C1O (stereo partly specified)
T/C (endpoint: mean survival time, dose: 1.25 mg/kg/injection, schedule: Q01DX001 (sc), vehicle: steriod suspending solution): 101 % of control
T/C (endpoint: mean survival time, dose: 1.25 mg/kg/injection, schedule: Q01DX009 (sc), vehicle: steriod suspending solution): 94 % of control
T/C (endpoint: mean survival time, dose: 2.5 mg/kg/injection, schedule: Q01DX001 (sc), vehicle: steriod suspending solution): 101 % of control
T/C (endpoint: mean survival time, dose: 2.5 mg/kg/injection, schedule: Q01DX009 (sc), vehicle: steriod suspending solution): 97 % of control
T/C (endpoint: mean survival time, dose: 2.5 mg/kg/injection, schedule: Q04DX003 (sc), vehicle: steriod suspending solution): 93 % of control
T/C (endpoint: mean survival time, dose: 5.0 mg/kg/injection, schedule: Q01DX001 (sc), vehicle: steriod suspending solution): 98 % of control
T/C (endpoint: mean survival time, dose: 5.0 mg/kg/injection, schedule: Q01DX009 (sc), vehicle: steriod suspending solution): 95 % of control
T/C (endpoint: mean survival time, dose: 5.0 mg/kg/injection, schedule: Q04DX003 (sc), vehicle: steriod suspending solution): 95 % of control
T/C (endpoint: mean survival time, dose: 10.0 mg/kg/injection, schedule: Q01DX001 (sc), vehicle: steriod suspending solution): 101 % of control
T/C (endpoint: mean survival time, dose: 10.0 mg/kg/injection, schedule: Q01DX009 (sc), vehicle: steriod suspending solution): 95 % of control
T/C (endpoint: mean survival time, dose: 10.0 mg/kg/injection, schedule: Q04DX003 (sc), vehicle: steriod suspending solution): 112 % of control
T/C (endpoint: mean survival time, dose: 20.0 mg/kg/injection, schedule: Q01DX001 (sc), vehicle: steriod suspending solution): 103 % of control
T/C (endpoint: mean survival time, dose: 20.0 mg/kg/injection, schedule: Q04DX003 (sc), vehicle: steriod suspending solution): 101 % of control
T/C (endpoint: mean survival time, dose: 40.0 mg/kg/injection, schedule: Q04DX003 (sc), vehicle: steriod suspending solution): 95 % of control

O=C1OC(=O)C2C3CCC(O3)C12 (stereo unspecified)
T/C (endpoint: mean survival time, dose: 1.56 mg/kg/injection, schedule: Q01DX009 (ip), vehicle: saline): 98 % of control
T/C (endpoint: mean survival time, dose: 3.12 mg/kg/injection, schedule: Q01DX009 (ip), vehicle: saline): 101 % of control
T/C [4]: 103 % of control
T/C [5]: 100 % of control
T/C (endpoint: mean survival time, dose: 20.0 mg/kg/injection, schedule: Q01DX009 (ip), vehicle: saline with Tween-80): 98 % of control

COc1cc2c(c(OC)c1O)-c1ccc(OC)c(=O)cc1[C@@H](NC(=O)C(F)(F)F)CC2
T/C (endpoint: median survival time, dose: 0.62 mg/kg/injection, schedule: Q01DX009 (ip), vehicle: Klucel (hydroxypropylcellulose) (HPC)): 118 % of control
T/C (endpoint: median survival time, dose: 1.25 mg/kg/injection, schedule: Q01DX009 (ip), vehicle: Klucel (hydroxypropylcellulose) (HPC)): 123 % of control
T/C (endpoint: median survival time, dose: 2.5 mg/kg/injection, schedule: Q01DX005 (ip), vehicle: Klucel (hydroxypropylcellulose) (HPC)): 164 % of control
T/C (endpoint: median survival time, dose: 3.0 mg/kg/injection, schedule: Q01DX005 (ip), vehicle: Klucel (hydroxypropylcellulose) (HPC)): 175 % of control
T/C (endpoint: median survival time, dose: 5.0 mg/kg/injection, schedule: Q01DX005 (ip), vehicle: Klucel (hydroxypropylcellulose) (HPC)): 171 % of control
T/C (endpoint: median survival time, dose: 8.32 mg/kg/injection, schedule: Q01DX005 (ip), vehicle: Klucel (hydroxypropylcellulose) (HPC)): 167 % of control
T/C (endpoint: median survival time, dose: 10.0 mg/kg/injection, schedule: Q01DX005 (ip), vehicle: Klucel (hydroxypropylcellulose) (HPC)): 160 % of control
T/C (endpoint: median survival time, dose: 13.88 mg/kg/injection, schedule: Q01DX005 (ip), vehicle: Klucel (hydroxypropylcellulose) (HPC)): 164 % of control

Cc1c(Cl)c(Cl)c(NS(=O)(=O)c2ccccc2)c(NS(=O)(=O)c2ccccc2)c1Cl
T/C (endpoint: mean survival time, dose: 100.0 mg/kg/injection, schedule: Q04DX003 (ip), vehicle: Klucel (hydroxypropylcellulose) (HPC)): 97 % of control
T/C (endpoint: mean survival time, dose: 200.0 mg/kg/injection, schedule: Q04DX003 (ip), vehicle: Klucel (hydroxypropylcellulose) (HPC)): 104 % of control
T/C (endpoint: mean survival time, dose: 400.0 mg/kg/injection, schedule: Q04DX003 (ip), vehicle: Klucel (hydroxypropylcellulose) (HPC)): 95 % of control
